Drawing on ChEMBL document CHEMBL5678818, “Discovery of potent SOS1 inhibitors that block RAS activation via disruption of the RAS-SOS1 interaction” (Proc Natl Acad Sci U S A, 2019), this text covers Activity and ΔTm for two compounds.

Assay [1] concerns the target T1, Myotonin-protein kinase (Homo sapiens) (UniProt Q09013).
T1 sequence (whole entry): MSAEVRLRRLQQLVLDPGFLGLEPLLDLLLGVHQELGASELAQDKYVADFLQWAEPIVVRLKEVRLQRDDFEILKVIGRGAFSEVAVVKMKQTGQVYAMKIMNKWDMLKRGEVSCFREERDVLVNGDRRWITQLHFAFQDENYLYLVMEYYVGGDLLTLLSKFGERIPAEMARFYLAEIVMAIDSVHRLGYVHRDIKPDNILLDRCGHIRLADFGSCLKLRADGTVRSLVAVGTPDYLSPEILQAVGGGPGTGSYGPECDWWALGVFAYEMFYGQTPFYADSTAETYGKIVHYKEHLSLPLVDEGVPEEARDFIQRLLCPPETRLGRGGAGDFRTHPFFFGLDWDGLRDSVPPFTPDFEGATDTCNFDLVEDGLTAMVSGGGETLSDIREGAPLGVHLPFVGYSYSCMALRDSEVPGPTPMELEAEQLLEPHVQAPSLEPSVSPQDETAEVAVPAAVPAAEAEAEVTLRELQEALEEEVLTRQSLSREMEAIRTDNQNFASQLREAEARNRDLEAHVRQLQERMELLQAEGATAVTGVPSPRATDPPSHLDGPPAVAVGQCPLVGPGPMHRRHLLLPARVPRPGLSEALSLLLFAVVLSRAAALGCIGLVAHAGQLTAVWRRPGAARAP
Kind of assay: Inhibition of DMPK (unknown origin) assessed as residual activity at 100 nM by KINOMEscan analysis relative to control.

The species entered for a further assay is Homo sapiens. Nature of the assay: Inhibition of JNK2 (unknown origin) assessed as residual activity at 100 nM by KINOMEscan analysis relative to control.
For assay [2], the target named is T2, Mitogen-activated protein kinase kinase kinase 13 (Homo sapiens) (UniProt O43283).
T2 sequence (whole entry): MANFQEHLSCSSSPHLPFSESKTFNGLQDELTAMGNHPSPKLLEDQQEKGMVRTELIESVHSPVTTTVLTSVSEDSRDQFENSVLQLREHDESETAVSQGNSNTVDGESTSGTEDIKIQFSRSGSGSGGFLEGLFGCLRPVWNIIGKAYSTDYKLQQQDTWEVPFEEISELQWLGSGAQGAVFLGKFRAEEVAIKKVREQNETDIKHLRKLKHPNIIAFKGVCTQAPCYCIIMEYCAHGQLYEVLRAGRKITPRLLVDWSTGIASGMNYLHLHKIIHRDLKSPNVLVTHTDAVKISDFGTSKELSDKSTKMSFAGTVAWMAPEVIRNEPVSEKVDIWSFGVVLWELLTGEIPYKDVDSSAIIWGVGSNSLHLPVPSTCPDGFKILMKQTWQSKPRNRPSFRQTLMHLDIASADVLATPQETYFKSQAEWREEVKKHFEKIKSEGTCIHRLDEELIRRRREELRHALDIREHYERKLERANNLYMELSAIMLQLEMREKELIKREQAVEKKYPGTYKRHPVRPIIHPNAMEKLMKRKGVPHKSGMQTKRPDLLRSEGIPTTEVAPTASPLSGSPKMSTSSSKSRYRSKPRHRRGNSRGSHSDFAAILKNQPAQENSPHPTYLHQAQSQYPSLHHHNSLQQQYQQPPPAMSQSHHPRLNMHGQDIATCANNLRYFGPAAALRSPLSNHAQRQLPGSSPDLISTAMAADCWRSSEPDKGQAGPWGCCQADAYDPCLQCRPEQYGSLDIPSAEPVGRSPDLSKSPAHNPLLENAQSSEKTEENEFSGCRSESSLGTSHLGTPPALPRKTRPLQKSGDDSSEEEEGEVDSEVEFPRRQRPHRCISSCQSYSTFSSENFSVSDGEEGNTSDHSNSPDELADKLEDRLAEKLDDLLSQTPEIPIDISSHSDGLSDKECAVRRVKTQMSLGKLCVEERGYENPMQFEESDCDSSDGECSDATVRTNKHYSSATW
Kind of assay: Inhibition of LZK (unknown origin) assessed as residual activity at 100 nM by KINOMEscan analysis relative to control.

In assay [3] the target is T3, Serine/threonine-protein kinase 3 (Homo sapiens) (UniProt Q13188).
T3 sequence (whole entry): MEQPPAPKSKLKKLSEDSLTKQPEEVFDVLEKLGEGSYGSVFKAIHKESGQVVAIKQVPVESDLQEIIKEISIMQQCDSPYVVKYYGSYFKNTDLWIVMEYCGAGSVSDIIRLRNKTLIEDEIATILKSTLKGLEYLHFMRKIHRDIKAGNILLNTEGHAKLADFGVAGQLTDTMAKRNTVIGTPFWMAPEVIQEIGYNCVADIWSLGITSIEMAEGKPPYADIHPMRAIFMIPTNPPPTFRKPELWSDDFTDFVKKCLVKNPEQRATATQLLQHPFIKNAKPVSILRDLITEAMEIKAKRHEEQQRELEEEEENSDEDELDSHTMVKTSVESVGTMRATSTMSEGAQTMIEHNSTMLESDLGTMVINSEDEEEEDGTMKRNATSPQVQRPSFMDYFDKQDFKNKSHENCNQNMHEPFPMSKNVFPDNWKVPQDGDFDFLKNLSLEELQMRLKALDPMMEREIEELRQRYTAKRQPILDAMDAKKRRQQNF
Kind of assay: Inhibition of MST2 (unknown origin) assessed as residual activity at 100 nM by KINOMEscan analysis relative to control.

Assay [4] has as its system GTPase KRas (Homo sapiens), P01116 [G12C]. Nature of the assay: Stabilization of N-terminal GST-tagged recombinant human KRAS G12C mutant (1 to 169 residues) expressed in Escherichia coli assessed as change in melting temperature at 100 uM with heating from 25 to 85 degreeC by thermal shift assay.

For orientation: ΔTm means the shift of the melting midpoint relative to a reference.

Consider `COc1cc2ncnc(N[C@H](C)c3cccc4ccccc34)c2cc1OC`, for which the Activity in assay [1] came out at 100%; in the assay filed under Homo sapiens it was 68%; in assay [2], 82%; in assay [3] it was 92%.
With `CNCc1ccccc1-c1csc([C@@H](C)Nc2nc(C)nc3cc(OC)c(OC)cc23)c1` [BAY-293], the ΔTm in assay [4] was found to be 0.21 °C.
